{"source": "patent US5610171A", "about": "“Inhibition of metastasis in patients having cancer with pyridyloxazole-2-ones” (Merrell Pharmaceuticals Inc., priority 1995, dated 1997)", "key": {"cytosolic PKC": {"system": "cytosolic PKC", "assay": "Inhibition of B16F1 cytosolic PKC activity", "format": "biochemical, murine", "conditions": "B16F1 cytosol fraction", "protocol": "(§1) Protein Kinase C Preparation\n(§2) Cytostolic and membrane-associated PKC was prepared as described in Thomas, T. P., Gopalakrishna, R. and Anderson, W. B. Hormone- and tumor promoter-induced activation of membrane association of protein kinase C in intact cells, Methodsin Enzymology, 141: 399-411, 1987. Sub-confluent B16F1 cultures (4×10^7 cells total) were washed twice with phosphate buffered saline (PBS), pH 7.2 and then twice with buffer A (20 mM Tris, pH 7.5, 2 mM EDTA, 0.5 mM EGTA, […], 2 mM phenylmethylsulfonyl fluoride (PMSF), and 2 μg/ml leupeptin). Cells were scraped from the plates in buffer A, homogenized (40 strokes) and sedimented by centrifugation for 1 hour at 100,000 g. The cytosol was stored on ice while the particulate fraction was washed with buffer B (20 mM Tris, pH 7.2, 2 mM EDTA, 0.5 mM EGTA, and 2 mM (PMSF). The membranes were resuspended with buffer B and homogenized with 10 strokes. Nonidet P-40 (1% final concentration) was added and the mixture was incubated for 30 minutes at 4° C. in a rotating mixer. Nonsolubilized material was removed by centrifugation for 10 minutes at 1400 g. Cytostolic and membrane-bound PKC was partially purified by chromatography over 1 ml columns of DE-52 (Whatman) equilibrated with buffer B. The enzyme was applied to the column and washed with 2×3 ml buffer B. Elution of PKC was then effected by the addition of 2 ml buffer B containing 100 mM NaCl.\n(§3) PKC was quantitated as described in Thomas et al., ibid. The assay contained 20 mM Tris (pH 7.5), 0.75 mM CaCl, 10 mM magnesium acetate, […] histone III-S, 0.25 μg/ml leupeptin, 100 μM [gamma-^32 p]-ATP (120 cpm/pmol), 0.96 μg/ml phosphatidylserine, and 0.0064 μg/ml 1,2-diolein in a total assay volume of 250 μl. Blanks contained no calcium or phospholipids. Incubation was for 5 minutes at 30° C. at which point the reaction was terminated by the addition of 1 ml 25% trichloroacetic acid (TCA). Samples were applied to Whatman GF/B filters, the tube rinsed twice with 5% TCA and the filter then washed 5 times with 5% TCA.\n^a Subconfluent B16F1 cells were harvested and cytosol and membrane\nfractions prepared as described in Materials and Methods. PKC activity wa\nthen measured in the presence of the drugs listed."}, "membrane-associated PKC": {"system": "membrane-associated PKC", "assay": "Inhibition of B16F1 membrane-associated PKC activity", "format": "biochemical, murine", "conditions": "B16F1 membrane fraction", "protocol": "as §1, §2, §3"}, "fibrinogen": {"system": "fibrinogen", "assay": "Adhesion of B16F1 cells to fibrinogen", "format": "cell-based", "conditions": "24 hours", "protocol": "(§4) Adhesion of B16F1 Cells to Basement Membrane Proteins\n(§5) Adhesion proteins (2 μg/well) were coated onto Immulon I Removawells from Dynatech and incubated for 1 hour at 37° C. The wells were then blocked for 1 hour with 400 μl PBS, pH 7.2 containing 1% bovine serum albumin (BSA) at 37° C. Prior to addition of the cell suspension, the blocking solution was aspirated.\n(§6) Sub-confluent cells were washed twice with HBSS and removed form flasks by incubation for 10 minutes at 37° C. with PBS (pH 7.2), 2 mM EDTA, and 1% BSA. The cells were washed twice with MEM containing 20 mM HEPES and 0.1% BSA and resuspended in the same medium to give a cell density of […].\n(§7) Cells were added to wells in 50 μl (5×10^4 cells) and incubated at 37° C. The wells were aspirated and washed three times with 400 μl PBS (pH 7.2) containing 0.1% BSA. Wells were detached and counted in 5 ml Beckman Ready Protein. Blanks were not coated with protein but were blocked with BSA as described above."}, "collagen IV": {"system": "collagen IV", "assay": "Adhesion of B16F1 cells to collagen IV", "format": "cell-based", "conditions": "24 hours", "protocol": "as §4, §5, §6, §7"}, "[1]": {"system": "B16F1 murine melanoma cells", "assay": "Viability of treated B16F1 cells by [3H]-thymidine incorporation", "format": "cell-based", "conditions": "24 hours"}, "[2]": {"system": "extracellular matrix/basement membrane proteins", "assay": "Adhesion of B16F1 cells to extracellular matrix/basement membrane proteins", "format": "cell-based, murine", "protocol": "as §4, §5, §6, §7"}, "B16F1 cells": {"system": "B16F1 cells", "assay": "Experimental lung metastasis assay (B16F1 cells treated in culture, then injected intravenously into C57BL/6 mice)", "format": "in vivo, murine (C57BL/6 mice)", "conditions": "for % Control (number of nodules) / Number of nodules per set of lungs, Mean +/- SE: 24 hours; for IC50: cells exposed to drugs for 24 hours, nodules counted three weeks later, read-out: B16 Metastasis IC50", "protocol": "Experimental Metastasis Assay\nSub-confluent B16F1 cells were harvested by washing with HBSS followed by trypsinization for 1 minute. The cells were sedimented by centrifugation (250 g, 5 minutes) and washed twice with HBSS. Viable cells were counted after dilution with trypan blue. A single-cell suspension of 10^5 cells in 0.2 ml HBSS was injected intravenously into 16-18 C57BL/6 mice via the tail vein. Three weeks later, the number of metastatic foci in the lung were counted."}}, "note": "“Also recorded” adds a separate entry of the source. Where two headings read alike, the source gives them in different places."}
{"molecule": "CCCc1[nH]c(=O)oc1-c1ccncc1", "note": "[Compound 1, 4-propyl-5(4-pyridinyl)-2(3H)-oxazolone]", "values": [{"measurement": "IC50", "setting": "cytosolic PKC", "value": 54, "unit": "µM"}, {"measurement": "IC50", "setting": "membrane-associated PKC", "value": 13, "unit": "µM"}, {"measurement": "adhesion to fibrinogen", "setting": "fibrinogen", "value": "most sensitive to inhibition"}, {"measurement": "adhesion to collagen IV", "setting": "collagen IV", "value": "most sensitive to inhibition"}, {"measurement": "viability of treated cells ([3H]-thymidine incorporation)", "setting": "[1]", "value": "equivalent to untreated cells"}, {"measurement": "attachment to extracellular matrix/basement membrane proteins", "setting": "[2]; 24 hours", "value": "decreased adhesion to some basement membrane proteins; also recorded: less adherent than untreated cells"}, {"measurement": "potency for inhibition of adhesion relative to H-7", "setting": "[2]; versus H-7", "value": "more potent than H-7"}, {"measurement": "potency for inhibition of adhesion relative to staurosporine", "setting": "[2]; versus staurosporine", "value": "significantly less potent than staurosporine"}, {"measurement": "% Control (number of nodules)", "setting": "B16F1 cells; 1 μM", "value": 67, "unit": "%"}, {"measurement": "Number of nodules per set of lungs, Mean +/- SE", "setting": "B16F1 cells; 1 μM", "value": "12 +/- 2.8 nodules per set of lungs"}, {"measurement": "% Control (number of nodules)", "setting": "B16F1 cells; 5 μM", "value": 78, "unit": "%"}, {"measurement": "Number of nodules per set of lungs, Mean +/- SE", "setting": "B16F1 cells; 5 μM", "value": "14 +/- 3.3 nodules per set of lungs"}, {"measurement": "% Control (number of nodules)", "setting": "B16F1 cells; 10 μM", "value": 43, "unit": "%"}, {"measurement": "Number of nodules per set of lungs, Mean +/- SE", "setting": "B16F1 cells; 10 μM", "value": "7.8 +/- 2.1 nodules per set of lungs"}, {"measurement": "% Control (number of nodules)", "setting": "B16F1 cells; 20 μM", "value": 30, "unit": "%"}, {"measurement": "Number of nodules per set of lungs, Mean +/- SE", "setting": "B16F1 cells; 20 μM", "value": "5.4 +/- 1.1 nodules per set of lungs"}, {"measurement": "% Control (number of nodules)", "setting": "B16F1 cells; 50 μM", "value": 12, "unit": "%"}, {"measurement": "Number of nodules per set of lungs, Mean +/- SE", "setting": "B16F1 cells; 50 μM", "value": "2 +/- 0.6 nodules per set of lungs"}, {"measurement": "inhibition of lung metastasis", "setting": "B16F1 cells; 24 hours in culture, then intravenous injection into C57BL/6 mice", "value": 90, "unit": "%"}, {"measurement": "IC50", "setting": "B16F1 cells; Mus musculus, B16-F1, iv", "value": 6.8, "unit": "µM"}, {"measurement": "number of lung metastases", "setting": "B16F1 cells; cells exposed in vitro, then injected into mice", "value": "diminished the number of lung metastases"}, {"measurement": "IC50", "setting": "B16F1 cells", "value": 7, "unit": "µM"}, {"measurement": "incubation time for 50% of maximum inhibition of metastasis", "setting": "B16F1 cells; time dependence of incubation", "value": "≤ 8", "unit": "h"}, {"measurement": "potency for inhibition of metastasis relative to H-7", "setting": "B16F1 cells; versus H-7", "value": "more potent than H-7"}, {"measurement": "potency for inhibition of metastasis relative to staurosporine", "setting": "B16F1 cells; versus staurosporine", "value": "significantly less potent than staurosporine"}]}
